Experimental data published in PMC5107896 (Scientific Reports, 2016).
Values belong to the compound of their own block, whether it stands above or below them.

Key:
Type in all cases: biochemical
Factor Xa (F10) = Factor Xa (F10) (Homo sapiens, UniProt P00742); experiment: SensoLyte Rh110 Factor Xa Assay Kit (enzyme inhibition)
[1] = biological target: T1, Prostaglandin G/H synthase 2 (PTGS2/COX2) (Ovis aries, UniProt P79208); experiment: Colorimetric COX (ovine) inhibitor screening assay kit (Cayman)
T1 sequence (P79208 17-603): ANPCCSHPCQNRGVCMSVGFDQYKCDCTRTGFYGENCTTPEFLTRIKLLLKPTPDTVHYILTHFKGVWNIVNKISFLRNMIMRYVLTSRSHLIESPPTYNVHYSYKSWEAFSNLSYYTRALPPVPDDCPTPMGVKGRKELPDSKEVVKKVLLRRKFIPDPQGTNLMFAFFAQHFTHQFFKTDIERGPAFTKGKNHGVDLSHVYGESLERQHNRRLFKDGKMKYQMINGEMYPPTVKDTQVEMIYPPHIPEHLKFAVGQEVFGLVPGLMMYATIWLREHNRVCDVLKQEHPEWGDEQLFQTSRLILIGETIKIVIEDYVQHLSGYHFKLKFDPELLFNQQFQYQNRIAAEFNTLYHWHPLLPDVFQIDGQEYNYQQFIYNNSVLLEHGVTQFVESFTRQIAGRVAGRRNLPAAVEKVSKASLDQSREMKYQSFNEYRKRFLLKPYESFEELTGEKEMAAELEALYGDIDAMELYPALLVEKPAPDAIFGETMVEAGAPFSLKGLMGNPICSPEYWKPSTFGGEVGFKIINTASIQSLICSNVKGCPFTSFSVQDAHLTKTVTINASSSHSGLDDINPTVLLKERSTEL

[2] = biological target: T2, Monoamine oxidase A (MAOA) (Homo sapiens, UniProt P21397); experiment: in vitro MAOA inhibition assay (enzyme purchased)
T2 sequence (P21397 1-527): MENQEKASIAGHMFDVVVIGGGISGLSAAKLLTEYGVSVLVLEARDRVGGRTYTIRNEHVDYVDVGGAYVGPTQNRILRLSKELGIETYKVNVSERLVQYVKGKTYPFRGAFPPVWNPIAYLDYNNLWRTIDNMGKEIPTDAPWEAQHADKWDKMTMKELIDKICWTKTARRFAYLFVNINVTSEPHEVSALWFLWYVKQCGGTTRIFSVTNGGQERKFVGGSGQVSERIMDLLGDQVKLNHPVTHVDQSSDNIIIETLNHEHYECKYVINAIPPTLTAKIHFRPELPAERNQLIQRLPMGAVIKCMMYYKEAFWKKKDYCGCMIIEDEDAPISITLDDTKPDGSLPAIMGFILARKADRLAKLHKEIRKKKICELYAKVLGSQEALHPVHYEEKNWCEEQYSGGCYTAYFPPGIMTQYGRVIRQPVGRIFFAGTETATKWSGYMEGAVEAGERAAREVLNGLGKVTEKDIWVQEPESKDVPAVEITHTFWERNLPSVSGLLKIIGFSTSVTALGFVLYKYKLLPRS

Sequence of Factor Xa (F10) (P00742 41-179): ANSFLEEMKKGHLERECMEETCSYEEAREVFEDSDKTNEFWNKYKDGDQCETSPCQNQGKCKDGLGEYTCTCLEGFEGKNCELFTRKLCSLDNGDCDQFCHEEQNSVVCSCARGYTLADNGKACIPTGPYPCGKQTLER
Sequence of Factor Xa (F10) (P00742 235-488): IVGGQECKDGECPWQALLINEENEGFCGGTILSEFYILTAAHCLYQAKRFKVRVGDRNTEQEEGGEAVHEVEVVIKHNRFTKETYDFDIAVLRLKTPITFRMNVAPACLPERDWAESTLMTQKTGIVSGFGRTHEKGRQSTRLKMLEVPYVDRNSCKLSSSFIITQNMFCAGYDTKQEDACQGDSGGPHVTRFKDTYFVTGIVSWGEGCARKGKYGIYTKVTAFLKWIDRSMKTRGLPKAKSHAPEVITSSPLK

SMILES: O=C(/C=C/c1ccc(O)c(O)c1/C=C/c1ccc(O)c(O)c1)O[C@H](Cc1ccc(O)c(O)c1)C(=O)O [salvianolic acid A]
IC50 (Factor Xa (F10)): 90 nM

IC50 [1]: 37400 nM
SMILES: O=c1c(O)c(-c2ccc(O)cc2)oc2cc(O)cc(O)c12 [kaempferol]

SMILES: O=c1cc(-c2ccc(O)c(O)c2)oc2cc(O)cc(O)c12 [luteolin]
IC50 [2]: 10 nM
